Test results taken from the NIST ThermoML archive (doi:10.1016/j.jct.2007.11.010).

Experiment: xn = mol fraction of the nth substance listed
Details: 101 kPa, Liquid

OCCN1CCOCC1 [4-morpholineethanol] + CC(C)O
mass density [kg/m3]
Details	293.15 K	298.15 K	303.15 K	313.15 K	323.15 K
x1 = 0.0543	810.11	806.22	801.63	792.98	784.44
x1 = 0.1127	835.5	831.48	826.84	818.19	809.79
x1 = 0.1873	865.79	861.61	856.92	848.29	840.07
x1 = 0.2468	888.39	884.1	879.38	870.77	862.71
x1 = 0.2874	903.13	898.77	894.03	885.45	877.5
x1 = 0.3248	916.03	911.6	906.84	898.29	890.46
x1 = 0.3873	936.59	932.06	927.29	918.79	911.14
x1 = 0.4267	948.75	944.16	939.38	930.92	923.4
x1 = 0.4882	967	962.32	957.53	949.14	941.81
x1 = 0.5237	976.91	972.17	967.38	959.03	951.82
x1 = 0.5894	994.19	989.37	984.57	976.32	969.32
x1 = 0.6422	1007.31	1002.43	997.63	989.46	982.63
x1 = 0.6899	1018.36	1013.43	1008.64	1000.53	993.87
x1 = 0.7439	1030.26	1025.27	1020.49	1012.47	1005.99
x1 = 0.7855	1038.88	1033.86	1029.09	1021.13	1014.79
x1 = 0.8238	1046.42	1041.36	1036.59	1028.7	1022.49
x1 = 0.8841	1057.54	1052.43	1047.69	1039.9	1033.9
x1 = 0.9247	1064.51	1059.37	1054.64	1046.93	1041.06
x1 = 0.9544	1069.21	1064.05	1059.33	1051.68	1045.92
x1 = 0.9844	1074.11	1068.93	1064.23	1056.62	1050.96

OCCN1CCOCC1 [4-morpholineethanol] + CCC(C)O
mass density [kg/m3]
Details	293.15 K	298.15 K	303.15 K	313.15 K	323.15 K
x1 = 0.0542	824.77	821.68	817.07	809.49	804.37
x1 = 0.1098	843.95	840.73	836.08	828.46	823.27
x1 = 0.1855	869.23	865.83	861.15	853.47	848.18
x1 = 0.2431	887.71	884.17	879.46	871.75	866.4
x1 = 0.2876	901.62	897.97	893.25	885.52	880.12
x1 = 0.3266	913.58	909.84	905.11	897.36	891.91
x1 = 0.3854	930.89	927.02	922.28	914.51	909.01
x1 = 0.4277	943.01	939.04	934.29	926.51	920.97
x1 = 0.4822	958.03	953.95	949.18	941.4	935.81
x1 = 0.5189	967.85	963.68	958.92	951.14	945.51
x1 = 0.5672	980.37	976.09	971.33	963.55	957.89
x1 = 0.6044	989.72	985.36	980.59	972.82	967.14
x1 = 0.6438	999.36	994.93	990.17	982.4	976.69
x1 = 0.6798	1007.93	1003.44	998.68	990.92	985.19
x1 = 0.7355	1020.77	1016.16	1011.41	1003.67	997.91
x1 = 0.7942	1033.69	1028.98	1024.24	1016.52	1010.73
x1 = 0.8427	1044.13	1039.33	1034.6	1026.9	1021.09
x1 = 0.8785	1051.72	1046.85	1042.13	1034.45	1028.62
x1 = 0.9235	1061.1	1056.15	1051.43	1043.77	1037.92
x1 = 0.9844	1073.45	1068.39	1063.69	1056.06	1050.18

OCCN1CCOCC1 [4-morpholineethanol] + CCCCO
mass density [kg/m3]
Details	293.15 K	298.15 K	303.15 K	313.15 K	323.15 K
x1 = 0.0652	832.8	829	825.1	817.44	809.9
x1 = 0.1125	849.1	845.21	841.24	833.54	826.03
x1 = 0.1865	873.74	869.7	865.64	857.88	850.45
x1 = 0.2436	891.83	887.69	883.56	875.77	868.41
x1 = 0.2865	905.09	900.87	896.69	888.88	881.58
x1 = 0.3275	917.49	913.2	908.97	901.14	893.89
x1 = 0.3852	934.26	929.86	925.57	917.73	910.57
x1 = 0.4259	945.77	941.31	936.97	929.12	922.02
x1 = 0.4784	960.02	955.47	951.09	943.23	936.22
x1 = 0.5248	972.29	967.67	963.24	955.38	948.45
x1 = 0.5649	982.5	977.82	973.35	965.5	958.65
x1 = 0.6126	994.28	989.52	985.02	977.16	970.4
x1 = 0.6539	1004.15	999.34	994.8	986.96	980.27
x1 = 0.6898	1012.51	1007.64	1003.08	995.25	988.63
x1 = 0.7353	1022.74	1017.81	1013.21	1005.4	998.88
x1 = 0.7962	1035.87	1030.87	1026.23	1018.44	1012.05
x1 = 0.8367	1044.36	1039.31	1034.64	1026.87	1020.56
x1 = 0.8823	1053.64	1048.53	1043.84	1036.07	1029.88
x1 = 0.9248	1062.23	1057.07	1052.35	1044.62	1038.5
x1 = 0.9844	1073.74	1068.51	1063.75	1056.05	1050.07
